Key:
[1] = system: CD133+ CSCs in Panc354 and MetPO1 cells; experiment: Flow cytometry for CD133 after combination treatment; type: cell-based, human; conditions: flow cytometry after 12 days of treatment, fold change
Experimental: For surface protein staining, 1 × 10^6 cells were resuspended in 100µl ice-cold FACS buffer supplemented with 6 µl Gamunex for 15 min at 4 °C. Cells were then incubated with CD133 (PE, Miltenyi Biotec, #130-113-108, RRID: AB_2725937) and CXCR4 (APC, eBioscience, #17-9999-42, RRID: AB_1724113) antibodies or an appropriate isotype control for 30 min at 4 °C. After a PBS wash, cells were resuspended in 500µl of ice-cold FACS buffer with DAPI in FACS tubes for analysis.
(§1) (A) Migration assays towards CXCL12 using Panc354 for EPI-X4 and its derivatives at depicted concentrations. […] (D) Quantifications of percent mesenchymal structures after 15 min and 6 h of CXCL12 treatment in MetPO1 cells. […] Intensity ratios (IR) calculated against control lane using ImageJ. […] Quantification of cell viability and representative pictures for clonogenic assays after treatment with JM#21 (10 μM), gemcitabine (Gem) for indicated concentrations as depicted in experimental design in MetPO1 cell line. […]
We then evaluated the therapeutic potential of JM#21. […] Since we have previously shown the role of CSCs in chemoresistance and the benefit of combination therapy for PDAC in vitro and in vivo[6],[38]–[40], we proceeded to evaluate the role of CSCs in the above-mentioned combination treatment and used flow cytometry to quantify CD133 + CSCs after 12 days of treatment (Fig. 5J, Supp. Figure 3I). […]

Panc354 = experiment: Transwell migration assay towards CXCL12 (serum-free, B27); type: cell-based, human; conditions: 8 μm pore inserts, CXCL12 10 nM as chemoattractant, 30 min peptide pre-treatment, 24 h, B27 as serum substitute, dose-dependent, largest suppression, n = 3
Experimental: Migration assays were performed using inserts with 8μm pore size PET membranes (Corning, 353,097). Serum (10% FBS) or CXCl12 (10nM) was used in the companion plates as chemoattractant. After 24 h, invaded cells were fixed with 4% PFA and stained with DAPI (Merck, 10,236,276,001). Ten random 10 × fields were chosen and photographed (Keyence), and the pictures were quantified using ImageJ (RRID:SCR_003070).
The CXCL12 – CXCR4 axis regulates a bidirectional tumor-stromal signaling loop that ultimately promotes CSCs and miCSCs and their metastatic and chemoresistant phenotypes. Therefore, targeting CXCR4 may provide a significant improvement in the anticancer therapeutic efficacy. The Endogenous Peptide Inhibitor of CXCR4 (EPI-X4) is a natural antagonist of CXCR4, previously discovered in a human peptide library screen. […]
as §1

Compound | CD133+ population in relapsed cells [1] | suppression of CXCL12-induced migration (Panc354)
Nc1ccn([C@@H]2O[C@H](CO)[C@@H](O)C2(F)F)c(=O)n1 [gemcitabine] | significant increase | –
EPI-X4: Endogenous Peptide Inhibitor of CXCR4, a natural antagonist of CXCR4 from a human peptide library screen (PQNLIKQNCELFEQLG; UniProt P02768 408-423, looked up, fragment) | – | approx. 50%
